Here are results for eight molecules from ChEMBL document CHEMBL1153542, “RNase H active site inhibitors of human immunodeficiency virus type 1 reverse transcriptase: design, biochemical activity, and structural information” (J Med Chem, 2009).

Structures are written as SMILES. pIC50: −log10 of the molar value. Calls of active or inactive are those of the source. The calls are words filed in the database; no cut-off is given here.

Test [1] deals with Human immunodeficiency virus. Put plainly: Antiviral activity against HIV infected in human MT4 cells up to 100 uM by multicycle infectivity assay. It is filed as functional, organism-based.
In another test the target is T1, Ribonuclease H1 (Homo sapiens, UniProt O60930).
T1 sequence (O60930 whole entry): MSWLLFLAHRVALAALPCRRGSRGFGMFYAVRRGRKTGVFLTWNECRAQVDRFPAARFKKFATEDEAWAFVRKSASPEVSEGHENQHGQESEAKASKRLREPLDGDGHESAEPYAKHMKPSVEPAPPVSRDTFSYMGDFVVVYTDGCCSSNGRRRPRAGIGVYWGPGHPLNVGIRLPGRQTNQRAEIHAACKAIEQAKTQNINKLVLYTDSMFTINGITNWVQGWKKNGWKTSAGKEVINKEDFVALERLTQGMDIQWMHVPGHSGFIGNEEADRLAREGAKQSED
Put plainly: Inhibition of human RNase H assessed as substrate cleavage by fluorescence assay.

In test [2] the target is Ribonuclease H1 (Homo sapiens) (UniProt O60930). Put plainly: Inhibition of human recombinant ribonuclease H1 in presence of Mg2+.

By pIC50 is commonly meant the negative decadic logarithm of the IC50, by convention in mol/L. On to `O=c1[nH]c2ccccc2c(=O)n1O`, for which, in test [1], the outcome was inactive. The pIC50 on Ribonuclease H1 is 5.23.

As to `O=C(O)c1nc(-c2ccccc2)nc(O)c1O`, the outcome in test [1] was inactive. For the same molecule, in test [2], the pIC50 is less than 4.00.

Take `O=C(O)c1nc(Cc2ccc(Cl)c(Cl)c2)nc(O)c1O`: the outcome in test [1] was inactive.

As for `O=C(O)c1nc(CCc2ccccc2)nc(O)c1O`, the outcome in test [1] was inactive.

On to `O=C(O)c1nc(Cc2c(Br)sc3ccc(Cl)cc23)nc(O)c1O`, for which the outcome in test [1] was inactive.

For `O=C(O)c1nc(Cc2ccccc2)nc(O)c1O`, in test [1], the result was inactive.

Take `COC(=O)c1nc(Cc2ccccc2)nc(O)c1O`: the result in test [1] was inactive.

`COc1ccc(Cc2nc(O)c(O)c(C(=O)O)n2)cc1Br`: in test [1], the result was inactive.
